Measured values reported in patent US20100056595A1, “Pyrazole Derivatives as P2X7 Modulators” (Glaxo Group Limited, priority 2007, published 2010).

Biological target: T1, human P2X7 receptor (Homo sapiens, UniProt Q99572)
T1 construct: expressed in transfected cells; host or cells: HEK293
T1 sequence (Q99572 1-595): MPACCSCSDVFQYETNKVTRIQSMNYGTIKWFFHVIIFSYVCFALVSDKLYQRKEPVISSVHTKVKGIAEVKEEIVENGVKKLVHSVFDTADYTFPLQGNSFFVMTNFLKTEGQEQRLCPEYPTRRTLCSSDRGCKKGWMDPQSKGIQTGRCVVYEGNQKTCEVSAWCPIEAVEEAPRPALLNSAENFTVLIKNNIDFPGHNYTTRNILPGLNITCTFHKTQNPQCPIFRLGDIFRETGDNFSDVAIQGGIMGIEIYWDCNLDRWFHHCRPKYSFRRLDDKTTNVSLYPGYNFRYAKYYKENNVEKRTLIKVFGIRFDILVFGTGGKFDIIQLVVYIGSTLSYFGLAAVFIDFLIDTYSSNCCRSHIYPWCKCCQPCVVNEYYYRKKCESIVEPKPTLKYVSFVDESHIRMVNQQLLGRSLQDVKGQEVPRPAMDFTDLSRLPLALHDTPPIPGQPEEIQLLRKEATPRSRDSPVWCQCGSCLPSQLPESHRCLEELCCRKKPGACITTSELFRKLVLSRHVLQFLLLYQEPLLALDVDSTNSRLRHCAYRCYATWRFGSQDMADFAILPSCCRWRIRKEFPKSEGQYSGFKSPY
Assay: Ethidium Accumulation Assay
Assay type: cell-based
Settings: HEK293 cells expressing human recombinant P2X7 receptors; blocking ATP (1 mM) responses; read-out: pIC50 for human P2X7 receptor antagonist activity in the Ethidium Accumulation Assay (converted)
Procedure: Ethidium Accumulation Assay
Studies were performed using NaCl assay buffer of the following composition (in mM): 140 mM NaCl, HEPES 10, N-methyl-D-glucamine 5, KCl 5.6, D-glucose 10, CaCl2 0.5 (pH 7.4). HEK293 cells, expressing human recombinant P2X7 receptors, were grown in poly-L-lysine pretreated 96 well plates for 18-24 h. […] The cells were washed twice with 350 μl of assay buffer before addition of 50 μl of antagonist. The cells were then incubated at room temperature (19-21° C.) for 30 min before addition of ATP and ethidium (100 μM final assay concentration). The ATP concentration was chosen to be close to the EC80 for the receptor type and was 1 mM for studies on the human P2X7 receptor. Incubations were continued for 8 or 16 min and were terminated by addition of 25 μl of 1.3M sucrose containing 5 mM of the P2X7 receptor antagonist reactive black 5 (Aldrich). Cellular accumulation of ethidium was determined by measuring fluorescence (excitation wavelength of 530nm and emission wavelength of 620 nm) from below the plate with a Canberra Packard Fluorocount (Pangbourne, UK). Antagonist pIC50 values for blocking ATP responses were determined using iterative curve fitting techniques.

IC50 [nM] | Structure (SMILES)
≤ 100 | Cc1cnn(C)c1CC(=O)NCc1cccc(C(F)(F)F)c1Cl [Example 2, N-{[2-chloro-3-(trifluoromethyl)phenyl]methyl}-2-(1,4-dimethyl-1H-pyrazol-5-yl)acetamide]
≤ 100 | Cc1cnn(CC(F)(F)F)c1CC(=O)NCc1ccc(F)c(F)c1Cl [Example 3, N-[(2-chloro-3,4-difluorophenyl)methyl]-2-[4-methyl-1-(2,2,2-trifluoroethyl)-1H-pyrazol-5-yl]acetamide]
≤ 100 | Cc1cnn(C)c1CC(=O)NCc1ccc(F)c(F)c1Cl [Example 4, N-[(2-chloro-3,4-difluorophenyl)methyl]-2-(1,4-dimethyl-1H-pyrazol-5-yl)acetamide]
≤ 100 | Cn1ncc(Cl)c1CC(=O)NCc1ccc(F)c(F)c1Cl [Example 15, N-[(2-Chloro-3,4-difluorophenyl)methyl]-2-(4-chloro-1-methyl-1H-pyrazol-5-yl)acetamide]
≤ 100 | Cn1ncc(F)c1CC(=O)NCc1ccc(F)c(F)c1Cl [Example 18, N-[(2-Chloro-3,4-difluorophenyl)methyl]-2-(4-fluoro-1-methyl-1H-pyrazol-5-yl)acetamide]

The remaining lines, values behind:

Structure (SMILES) | IC50 [nM]
Cn1nccc1CC(=O)NCc1cccc(C(F)(F)F)c1Cl [Example 5, N-{[2-chloro-3-(trifluoromethyl)phenyl]methyl}-2-(1-methyl-1H-pyrazol-5-yl)acetamide] | ≤ 100
Cn1ncc(Cl)c1CC(=O)NCc1cccc(C(F)(F)F)c1Cl [Example 6, 2-(4-chloro-1-methyl-1H-pyrazol-5-yl)-N-{[2-chloro-3-(trifluoromethyl)phenyl]methyl}acetamide] | ≤ 100
Cn1ncc(Br)c1CC(=O)NCc1cccc(C(F)(F)F)c1Cl [Example 7, 2-(4-Bromo-1-methyl-1H-pyrazol-5-yl)-N-{[2-chloro-3-(trifluoromethyl)phenyl]methyl}acetamide] | ≤ 100
Cn1ncc(F)c1CC(=O)NCc1cccc(C(F)(F)F)c1Cl [Example 8, N-{[2-chloro-3-(trifluoromethyl)phenyl]methyl}-2-(4-fluoro-1-methyl-1H-pyrazol-5-yl)acetamide] | ≤ 100
Cc1cnn(C)c1CC(=O)NCc1ccc(Cl)cc1Cl [Example 10] | ≤ 100
Cn1ncc(Cl)c1CC(=O)NCc1ccc(F)cc1Cl [Example 14, N-[(2-Chloro-4-fluorophenyl)methyl]-2-(4-chloro-1-methyl-1H-pyrazol-5-yl)acetamide] | ≤ 100
Cn1ncc(Cl)c1CC(=O)NCc1ccc(Cl)cc1Cl [Example 16, 2-(4-Chloro-1-methyl-1H-pyrazol-5-yl)-N-[(2,4-dichlorophenyl)methyl]acetamide] | ≤ 100
Cn1ncc(F)c1CC(=O)NCc1ccc(Cl)cc1Cl [Example 19, N-[(2,4-Dichlorophenyl)methyl]-2-(4-fluoro-1-methyl-1H-pyrazol-5-yl)acetamide] | ≤ 100
Cn1ncc(I)c1CC(=O)NCc1ccc(Cl)cc1Cl [Example 20, N-[(2,4-Dichlorophenyl)methyl]-2-(4-iodo-1-methyl-1H-pyrazol-5-yl)acetamide] | ≤ 100
